In patent US8466203B2, “Method of stabilizing human eye tissue by reaction with nitrite and related agents such as nitro compounds” (priority 2006, dated 2013):
Several values for one entry are separate records, joined by “and”; a condition that tells them apart may be missing. Identical values can stand only once. Like-named read-outs stand apart in the source and are kept apart here.

How the values were obtained:
porcine cornea = assay: Yellowing of cross-linked porcine cornea; settings: 100 mM concentration
Description: These images were taken from tissues cross-linked with nitrite and the β-nitro alcohols 2-nitroethanol, 2-nitro-1-propanol, and […], for 48 hrs. […] Fresh porcine corneal strips and corneoscleral complexes were obtained within 6 hrs of sacrifice and incubated at 37° C. in buffered solutions (pH 7.4) containing 20% Dextran (T500) and either 100 mM NaNO2 or 100 mM of one each of the β-nitro alcohols. After 48 hrs, the following images were obtained. […] FIGS. 13 (B and D)
As such, the effects on corneal light transmission induced by cross-linking with β-nitro alcohols was evaluated using a method adopted from Dillon et al 2004.

human sclera = assay: Thermal shrinkage temperature analysis of human scleral strips; settings: pH 7.4, 37° C., 96 hrs
Excerpt: Thermal shrinkage temperature or denaturation temperature (Ts) is a technique that has been used for decades in studying collagen cross-linking. As collagen fibers are progressively heated, a threshold temperature is reached at which point disruption of hydrogen bonding in the collagen molecule triple helix occurs, resulting in unwinding of the triple helices. The denaturation of tertiary protein structure results in a rapid shrinkage of the tissue of up to 80%. This phenomenon can be expressed in various ways including temperature of onset of tissue shrinkage, temperature at maximal tissue shrinkage, and temperature at 50% of maximal tissue shrinkage, for example. In addition, differential scanning calorimetry (DSC) is related to thermal shrinkage temperature analysis and is widely used to evaluate biomaterial cross-linking. Thermal shrinkage temperature is essentially a simplified version of DSC and can be used effectively to screen the cross-linking efficacy of compounds. For the purposes of this study, the onset of shrinkage is considered the Ts and the temperature at which 50% of maximal shrinkage has occurred is T50. Graphs depicting the relationship between degree of shrinkage and temperature indicate differences in degree of cross-linking between groups. Thus, stabilization of collagen fiber structures through non-enzymatic cross-linking increases Ts and T50. A 5° C. upward shift in Ts for the anterior corneal stroma has been shown for the UVR cross-linking method (Spoerl, E., et al., 2004).
A semi-automated system has been developed which increases the efficiency and accuracy of Ts data collection. This system can perform multiple Ts assays in succession, allowing rapid screening of a number of potential cross-linking agents and conditions. […] Inlet and outlet fittings allow for constant circulation of heated water which is modulated by a digitally controlled water bath equipped with a water pump. The entire box is placed on a digital photo scanner connected to a Windows based computer. Beginning at 50° C. the temperature is raised at a rate of 1° C./min and serial scans are taken at every degree increase in temperature up to 80° C. Control pig corneas shrink at approximately 63° C. and cross-linked tissue at higher temperatures. As the tissue shrinks, the images are captured by the scanner. The image files are later analyzed for 2-dimensional area using NIH Image J software and % shrinkage calculations are made using Microsoft Excel for graphing purposes. This method obviates the need for removal of tissue pieces from the water bath with manual micrometer measurements as described by the UVR group (Spoerl, E., et al., 2004). Thus, the labor involved in acquiring data is lessened and the accuracy using image analysis is improved.
Shrinkage temperature (Ts) of porcine cornea (FIG. 16) and porcine and human sclera (FIGS. 17 and 18) cross-linked with 2-nitroethanol. […] Following reaction, thermal shrinkage temperature analysis was performed (Table 4). Several compounds were studied including NaNO2, 2-nitroethanol, 2-nitro-1-propanol, 3-nitro-2-pentanol, 2-nitrophenol, 2-nitroethane, 2-aminoethanol, isopentyl nitrite, DPTA/NO, DETA/NO, and urea, a nitrous acid trap.

[1] = system: primary bovine corneal endothelial cells; settings: for Cytotoxic threshold (using trypan blue): 48 hrs exposure

SMILES: O=[N+]([O-])CCO [2-nitroethanol]
- yellowing effect (porcine cornea): significant yellowing effect
- T50 (temperature at 50% of maximal shrinkage) (human sclera; 1 mM): 66.3 °C
- T50 Δ (change in 50% shrinkage temperature compared to control) (human sclera; 1 mM): 0.3 °C
- Ti (temperature at 1% absolute shrinkage) (human sclera; 1 mM): 60.8 °C
- T50 (temperature at 50% of maximal shrinkage) (human sclera; 10 mM): 68.2 °C
- T50 Δ (change in 50% shrinkage temperature compared to control) (human sclera; 10 mM): 2.2 °C
- Ti (temperature at 1% absolute shrinkage) (human sclera; 10 mM): 64.4 °C
- T50 (temperature at 50% of maximal shrinkage) (human sclera; 100 mM): 73.5 °C
- T50 Δ (change in 50% shrinkage temperature compared to control) (human sclera; 100 mM): 7.5 °C
- Ti (temperature at 1% absolute shrinkage) (human sclera; 100 mM): 71.7 °C
- Cytotoxic threshold (using trypan blue) ([1]; 0.1 mM): −
- Cytotoxic threshold (using trypan blue) ([1]; 0.5 mM): −
- Cytotoxic threshold (using trypan blue) ([1]; 0.75 mM): −
- Cytotoxic threshold (using trypan blue) ([1]; 1 mM): −
- Cytotoxic threshold (using trypan blue) ([1]; 2 mM): −
- Cytotoxic threshold (using trypan blue) ([1]; 3 mM): +
- Cytotoxic threshold (using trypan blue) ([1]; 5 mM): +
- Cytotoxic threshold (using trypan blue) ([1]; 7 mM): +
- Cytotoxic threshold (using trypan blue) ([1]; 10 mM): +
- tolerable level ([1]; bovine corneal endothelial cells): 0.0273%
- highest tolerated level ([1]; bovine corneal endothelial cells, 48 hrs): 2 mM and 3 mM
